Reference: US7320972B2, “4-Biarylyl-1-phenylazetidin-2-ones” (Microbia, Inc., priority 2003, dated 2008)

Tested on: cholesterol absorption (serum 3H-cholesterol)
Assay: In Vivo Assay of Hypolipidemic Agents using the Rat Cholesterol Absorption Model
Parameters: species or system Sprague-Dawley rats
Conditions: peroral; for inhibition in vivo at 1 mg/kg: po, serum 3H-cholesterol 3 h after cholesterol dose, vs vehicle control
Protocol: In Vivo Assay of Hypolipidemic Agents using the Rat Cholesterol Absorption Model. This model is based on models described by Burnett et al (2002), Bioorg. Med. Chem. Lett. 2002 Feb. 11;12(3):315-8 and J. Lipid Res. 1999 October;40(10):1747-57. Female Sprague-Dawley rats weighing 150-250 g are separated into groups of […] and fasted overnight. The animals (4-6/group) are dosed perorally with 300 μL test compounds in olive oil or suitable vehicle. Thirty minutes later, 3-5 microCuries ^3H-cholesterol per rat are delivered perorally in 300 μL olive oil. After three hours, 200 μL serum is collected, vortexed with scintillation fluid, and measured for radioactivity in a scintillation counter. Percent inhibition is defined as 100*(1−Ctest/Cctrl), where Ctest and Cctl refer to ^3H levels in serum for the test compound and for the vehicle only control, respectively. Percent inhibition values are reported for a fixed dose. The ED50 is the dose at which the half-maximal effect on serum ^3H levels is observed for a given test compound.
Representative compounds of the invention were tested in the Rat Cholesterol Absorption model above.

Compound	inhibition in vivo at 1 mg/kg [%]	also measured
COc1ccc(-c2ccc([C@@H]3[C@@H](CC[C@H](O)c4ccc(F)cc4)C(=O)N3c3ccc(F)cc3)cc2)cc1OC [Example 81, (3R,4S)-4-(3′,4′-dimethoxybiphenyl-4-yl)-1-(4-fluorophenyl)-3-[(3S)-3-(4-fluorophenyl)-3-hydroxypropyl]azetidin-2-one]	17	–
O=C1[C@H](CC[C@H](O)c2ccc(F)cc2)[C@@H](c2ccc(-c3cccc(O)c3)cc2)N1c1ccccc1 [Example 57, (3R,4S)-3-[(3S)-3-(4-Fluorophenyl)-3-hydroxypropyl]-4-(3′-hydroxybiphenyl-4-yl)-1-phenylazetidin-2-one]	73	–
COc1ccc(-c2ccc([C@@H]3[C@@H](CC[C@H](O)c4ccc(F)cc4)C(=O)N3c3ccc(F)cc3)cc2)c(OC)c1 [Example 97, (3R,4S)-4-(2′,4′-dimethoxybiphenyl-4-yl)-1-(4-fluorophenyl)-3-[(3S)-3-(4-fluorophenyl)-3-hydroxypropyl]azetidin-2-one]	40	–
O=Cc1ccc(O)cc1-c1ccc([C@@H]2[C@@H](CC[C@H](O)c3ccc(F)cc3)C(=O)N2c2ccc(F)cc2)cc1 [Example 104, 4′-{(2S,3R)-1-(4-fluorophenyl)-3-[(3S)-3-(4-fluorophenyl)-3-hydroxypropyl]-4-oxoazetidin-2-yl}-5-hydroxybiphenyl-2-carbaldehyde]	52	–
CCCCOc1cccc(-c2ccc([C@@H]3[C@@H](CC[C@H](O)c4ccc(F)cc4)C(=O)N3c3ccc(F)cc3)cc2)c1 [Example 109, (3R,4S)-4-(3′-butoxybiphenyl-4-yl)-1-(4-fluorophenyl)-3-[(3S)-3-(4-fluorophenyl)-3-hydroxypropyl]azetidin-2-one]	52	–
CC(C)Oc1cccc(-c2ccc([C@@H]3[C@@H](CC[C@H](O)c4ccc(F)cc4)C(=O)N3c3ccc(F)cc3)cc2)c1 [Example 105, (3R,4S)-1-(4-fluorophenyl)-3-[(3S)-3-(4-fluorophenyl)-3-hydroxypropyl]-4-(3′-isopropoxybiphenyl-4-yl)azetidin-2-one]	15	–
O=C1[C@H](CC[C@H](O)c2ccc(F)cc2)[C@@H](c2ccc(-c3ccc(CO)cc3)cc2)N1c1ccc(F)cc1 [Example 18]	48	–
O=C1[C@H](CC[C@H](O)c2ccc(F)cc2)[C@@H](c2ccc(-c3cccc(B(O)O)c3)cc2)N1c1ccc(F)cc1 [Example 115, (4′-{(2S,3R)-1-(4-fluorophenyl)-3-[(3S)-3-(4-fluorophenyl)-3-hydroxypropyl]-4-oxoazetidin-2-yl}biphenyl-3-yl)boronic Acid]	70	–
O=C1[C@H](CC[C@H](O)c2ccc(F)cc2)[C@@H](c2ccc(-c3cccc(O)c3)cc2O)N1c1ccccc1 [Example 42, (3R,4S)-4-(3,3′-Dihydroxybiphenyl-4-yl)-3-[(3S)-3-(4-fluorophenyl)-3-hydroxypropyl]-1-phenylazetidin-2-one]	87	–
O=C1[C@H](CC[C@H](O)c2ccc(F)cc2)[C@@H](c2ccc(-c3cccc([C@@H]4O[C@H](CO)[C@@H](O)[C@H](O)[C@H]4O)c3)cc2O)N1c1ccccc1 [Example 65, (1S)-1,5-Anhydro-1-(4′-{(2S,3R)-3-[(3S)-3-(4-fluorophenyl)-3-hydroxypropyl]-4-oxo-1-phenylazetidin-2-yl}-3′-hydroxybiphenyl-3-yl)-D-glucitol]	–	% inhibition at 0.1 mg/kg (0.1 mg/kg (footnote 5), serum 3H-cholesterol vs vehicle control): 60^5%
O=C(O)c1cc(-c2ccc([C@@H]3[C@@H](CC[C@H](O)c4ccc(F)cc4)C(=O)N3c3ccc(F)cc3)cc2)ccc1O [Example 106, 4′-{(2S,3R)-1-(4-fluorophenyl)-3-[(3S)-3-(4-fluorophenyl)-3-hydroxypropyl]-4-oxoazetidin-2-yl}-4-hydroxybiphenyl-3-carboxylic Acid]	66	–
O=C1[C@H](CC[C@H](O)c2ccc(F)cc2)[C@@H](c2ccc(-c3cccc([C@@H]4O[C@H](CO)[C@@H](O)[C@H](O)[C@H]4O)c3)cc2)N1c1ccccc1 [Example 64, (1S)-1,5-Anhydro-1-(4′-{(2S,3R)-3-[(3S)-3-(4-fluorophenyl)-3-hydroxypropyl]-4-oxo-1-phenylazetidin-2-yl}biphenyl-3-yl)-D-glucitol]	67	–
Cc1cc(-c2ccc([C@@H]3[C@@H](CC[C@H](O)c4ccc(F)cc4)C(=O)N3c3ccc(F)cc3)cc2)ccc1F [Example 94, (3R,4S)-4-(4′-fluoro-3′-methylbiphenyl-4-yl)-1-(4-fluorophenyl)-3-[(3S)-3-(4-fluorophenyl)-3-hydroxypropyl]azetidin-2-one]	30	–
O=C1[C@H](CC[C@H](O)c2ccc(F)cc2)[C@@H](c2ccc(-c3cccc(S)c3)cc2)N1c1ccc(F)cc1 [Example 119, (3R,4S)-1-(4-fluorophenyl)-3-[(3S)-3-(4-fluorophenyl)-3-hydroxypropyl]-4-(3′-mercaptobiphenyl-4-yl)azetidin-2-one]	56	–
CSc1cccc(-c2ccc([C@@H]3[C@@H](CC[C@H](O)c4ccc(F)cc4)C(=O)N3c3ccc(F)cc3)cc2)c1 [Example 82, (3R,4S)-1-(4-fluorophenyl)-3-[(3S)-3-(4-fluorophenyl)-3-hydroxypropyl]-4-[3′-(methylthio)biphenyl-4-yl]azetidin-2-one]	28	–
O=C(O)c1ccc(-c2ccc([C@@H]3[C@@H](CC[C@H](O)c4ccc(F)cc4)C(=O)N3c3ccc(F)cc3)cc2)cc1 [Example 22, 4′-{(2S,3R)-1-(4-fluorophenyl)3-[(3S)-3-(4-fluorophenyl)-3-hydroxypropyl]-4-oxoazetidin-2-yl]biphenyl-4-carboxylic acid]	52	–
O=C1[C@H](CC[C@H](O)c2ccc(F)cc2)[C@@H](c2ccc(Br)cc2)N1c1ccccc1 [Example 46, (3R,4S)-4-(4-Bromophenyl)-3-[(3S)-3-(4-fluorophenyl)-3-hydroxypropyl]-1-phenylazetidin-2-one]	30	–
O=C1[C@H](CC[C@H](O)c2ccc(F)cc2)[C@@H](c2ccc(-c3cccc(O)c3)cc2O)N1c1ccc(F)cc1 [Example 121, (3R,4S)-4-(3,3′-dihydroxybiphenyl-4-yl)-1-(4-fluorophenyl)-3-[(3S)-3-(4-fluorophenyl)-3-hydroxypropyl]azetidin-2-one]	72	–
O=C1[C@H](CC[C@H](O)c2ccc(F)cc2)[C@@H](c2cccc(-c3cccc(O)c3)c2)N1c1ccc(F)cc1 [Example 44, (3R,4S)-1-(4-fluorophenyl)-3-[(3S)-3-(4-fluorophenyl)-3-hydroxypropyl]-4-(3′-hydroxybiphenyl-3-yl)azetidin-2-one]	24	–
O=C1[C@H](CC[C@H](O)c2ccc(F)cc2)[C@@H](c2ccc(-c3cccc([C@H](O)[C@H]4OC(O)[C@H](O)[C@@H](O)[C@@H]4O)c3)cc2O)N1c1ccccc1 (stereo partly drawn) [Example 73, (6S)-6-C-(4′-{(2S,3R)-3-[(3S)-3-(4-Fluorophenyl)-3-hydroxypropyl]-4-oxo-1-phenylazetidin-2-yl}-3′-hydroxybiphenyl-3-yl)-D-glucopyranose]	59	–
CN(C)c1ccc(-c2ccc([C@@H]3[C@@H](CC[C@H](O)c4ccc(F)cc4)C(=O)N3c3ccc(F)cc3)cc2)cc1 [Example 17, (3R,4S)-4-[4′(dimethylamino)biphenyl-4-yl]-1-(4-fluorophenyl)-3-[(3S)-3-(4-fluorophenyl)-3-hydroxypropyl]azetidin-2-one]	43	–
O=C1[C@H](CC[C@H](O)c2ccc(F)cc2)[C@@H](c2ccc(-c3cccc(P(=O)(O)O)c3)cc2O)N1c1ccccc1 [Example 61, (4′-{(2S,3R)-3-[(3S)-3-(4-Fluorophenyl)-3-hydroxypropyl]-4-oxo-1-phenylazetidin-2-yl}-3′-hydroxybiphenyl-3-yl)phosphonic Acid]	–	% inhibition at 5 mg/kg (5 mg/kg (footnote 3), serum 3H-cholesterol vs vehicle control): 58^3%
O=C1[C@H](CC[C@H](O)c2ccc(F)cc2)[C@@H](c2ccc(-c3cc(O)cc(F)c3)cc2)N1c1ccc(F)cc1 [Example 112, (3R,4S)-4-(3′-fluoro-5′-hydroxybiphenyl-4-yl)-1-(4-fluorophenyl)-3-[(3S)-3-(4-fluorophenyl)-3-hydroxypropyl]azetidin-2-one]	75	–
O=C1[C@H](CC[C@H](O)c2ccc(F)cc2)[C@@H](c2ccc(-c3ccc(P(=O)(O)O)cc3)cc2O)N1c1ccccc1 [Example 127, (4′-{(2S,3R)-3-[(3S)-3-(4-Fluorophenyl)-3-hydroxypropyl]-4-oxo-1-phenylazetidin-2-yl}-3′-hydroxybiphenyl-4-yl)phosphonic Acid]	58	–
CCOc1ccc(-c2ccc([C@@H]3[C@@H](CC[C@H](O)c4ccc(F)cc4)C(=O)N3c3ccc(F)cc3)cc2)cc1 [Example 101, (3R,4S)-4-(4′-ethoxybiphenyl-4-yl)-1-(4-fluorophenyl)-3-[(3S)-3-(4-fluorophenyl)-3-hydroxypropyl]azetidin-2-one]	41	–
C=Cc1ccc(-c2ccc([C@@H]3[C@@H](CC[C@H](O)c4ccc(F)cc4)C(=O)N3c3ccc(F)cc3)cc2)cc1 [Example 84, (3R,4S)-1-(4-fluorophenyl)-3-[(3S)-3-(4-fluorophenyl)-3-hydroxypropyl]-4-(4′-vinylbiphenyl-4-yl)azetidin-2-one]	51	–
